# Results as given in publication PMC10961359, “Targeting hexokinase 2 for oral cancer therapy: structure-based design and validation of lead compounds” (Frontiers in Pharmacology, 2024).
# Assays:
# [1] = Cytotoxicity in normal HFF1 cells; assay type: cell-based, human; conditions: human, HFF1 cells (normal)
# Cal27 cells = experiment: Mitochondria membrane potential by TMRE uptake, Cal27; assay type: cell-based; conditions: Cal27, 30 μM, 4 h
# Procedure: FaDu and Cal27 cells were treated with test compounds (0.2 million cells per treatment) and were incubated for 1 h with 100 μM of 2-NBDG (Invitrogen, N13195), in glucose free medium, washed with ice-cold PBS, and re-suspended in 500 μL of PBS and maintained on ice to perform flow cytometric analyses within 30 min. The mean fluorescent intensity (MFI) readout reflects the amount of fluorescent glucose analog taken up by the cells, providing insight into their glucose uptake capacity. The percent (%) cell population positive for glucose uptake (shown with a right shift of the histogram peaks) were also plotted for both the cell lines. For MMP analysis, cells were incubated with 200 nM of TMRE (Invitrogen, T669) for 30 min. For each measurement, data was collected for 10,000 events using a BD FACS Aria III (Becton Dickinson, San Jose, CA) instrument.
# Mitochondria utilize the oxidizable substrates to produce a membrane potential as the proton gradient ([Sivandzade et al., 2019]). […] To determine the change in MMP post-treatment with HK2 inhibitors, the cells were treated with 200 nM of TMRE (tetramethyl rhodamine ethyl ester, a cell-permeant cationic dye readily sequestered by active mitochondria) and flow cytometric analyses of TMRE uptake was carried out. […]
# FaDu oral cancer cells = experiment: MTT antiproliferative assay, FaDu; assay type: cell-based; conditions: Homo sapiens, FaDu; MTT, 72 h treatment; mean ± SEM; read-out: GI50 for FaDu
# Procedure: FaDu cell line was cultured in RPMI-1640 medium containing L-glutamine (300 mg/L) and sodium bicarbonate (2 g/L), while Cal27, HEK293 and HFF-1 cell lines were cultured in DMEM medium containing glucose (4.5 g/L), L-glutamine (584 mg/L) and sodium bicarbonate (3.7 g/L). For gene expression and qPCR studies, RNA isolation was performed using Trizol (Thermo). The reagents and the primer sequences employed for the qPCR assays have been described previously ([Chakraborty et al., 2022]).
# The hits derived from the docking study were sourced from either commercial suppliers or pre-existing compounds within our laboratory or were synthesized anew. The FaDu and Cal27 oral cancer cells were treated with the compounds for 72 h at concentrations of 3, 10, 30, and 100 μM. A post-treatment MTT assay was done to evaluate their antiproliferative activity. Table S2 represents the anti-proliferative and enzyme inhibitory activity of the compounds obtained as hits from the structure-based drug design strategy. […] Consequently, 50 μM of all the hit compounds were evaluated for their HK2 enzyme inhibitory activity. 50 μM of compounds were incubated with HK2 protein and the rate of reaction was assessed in kinetic mode (rate of conversion of NAD to NADH). The choice of 50 μM concentration was based primarily on MTT assays and GI50 calculation. The average GI50 values of the hit compounds against less sensitive FaDu cell line was approximately 50 μM. Considering this information, we reasoned that utilizing a concentration equivalent to the average GI50 would allow us to assess the maximum inhibitory effect of the compounds on HK2 enzyme activity. […] The same compounds have been previously reported by our team to have EGFR phosphorylation inhibitory potential and were coded as H2 (compound 14) and H10 (compound 11) ([Chakraborty et al., 2022]). […] Figures 1C,D show the lead compounds H2 and H10 at the active site of HK2 enzyme interacting via H-bonds with the amino acid residues.
smiles,measurement,setting,value
"COc1ccc(CNC(=O)c2nc3ccccc3s2)cc1O [Compound 14, N-(3-hydroxy-4methoxybenzyl)benzo[d]thiazole-2-carboxamide]",CC50,[1],> 100 µM
same,MMP reduction compared to H10 and CCCP,Cal27 cells,more effective in reducing the MMP
same,GI50,FaDu oral cancer cells,63.1 µM
